Test results published in PubChem BioAssay AID624491 (Broad Institute, 2012).

Test system: D54 ERlucT glycosylation luciferase reporter, luminescence, 24 h
Experiment: blockers of NLG process in reporter cells – D54 ERlucT cells, luminescence, cherry-picks, dose response (AID 624491);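 also: signal gain reflects blocked N-linked glycosylation of a luciferase reporter; actives raise luciferase signal so AC26 marks activators of the reporter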

SMILES | AC26 [nM]
CCOc1ccc2c(c1)OC(c1ccc(OC)cc1)(C(F)(F)F)NC2=O (centres undefined) | 1610
COc1ccc(C(=O)Nc2sc(C)c(C)c2CN2CC(C)OC(C)C2)cc1 (centres undefined) | 659
CCOC(=O)c1c(CN(C)C)n(C)c2c(O)c(N=NC(N)=O)c3ccc(Br)cc3c12 | 242
Cn1c(=O)[nH]c(=O)c2c1nc(NN)n2CCOc1ccccc1 | 2570
OCC1OC(n2cnc3c(SCc4ccccc4)ncnc32)C(O)C1O (centres undefined) | 1050
O=C(N/N=C/c1cccc(C(F)(F)F)c1)C1CCN(c2ncc(C(F)(F)F)cc2Cl)CC1 | 5890
CCN(CC)CCNc1ccc(C)c2sc3ccc(O)cc3c(=O)c12 | 7.74
c1ccc(Cc2nnc(Sc3ccccc3)c3ccccc23)cc1 | 5170
Cc1cc(C)cc(C(=O)N2CC(=O)Nc3ccccc32)c1 | 265
C[C@H](CO)N1C[C@H](C)[C@@H](CN(C)S(=O)(=O)c2cccs2)Oc2c(NC(=O)Cc3ccccc3)cccc2C1=O | 2250
CC(=O)c1c(C)[nH]c(C(=O)Nc2nccs2)c1C | 2200
Cc1ccsc1CNc1ncnc2ccc(-c3c(C)noc3C)cc12 | 102
COc1cc(Nc2c3c(nc4ccccc24)CCC3)cc(OC)c1OC | 71.5
COc1ccc2sc3cccc(NCCN(C)C)c3c(=O)c2c1 | 4530
CCOC(=O)N1CCN(C(=O)c2cc(-c3ccncc3)nc3ccccc23)CC1 | 1410
CCOc1ccc(S(=O)(=O)NCc2ccccn2)cc1NC(=O)c1ccccc1F | 593
COc1cc(OC)cc(C(=O)NCC(=O)Nc2ccc(-c3ccccc3)cc2)c1 | 8830
Cc1cc(-n2c(C)cc(C(=O)CCl)c2C)no1 | 2160
COc1ccccc1OCC(=O)N/N=C/C=C/c1ccc([N+](=O)[O-])o1 | 432
COc1ccc(S(=O)(=O)N2CCCCC2)cc1NC(=O)c1[nH]c(C)c(C(C)=O)c1C | 1630
COc1cc(C(=O)OCCc2cc3ccccc3c(=O)o2)cc(OC)c1OC | 562
Cc1ccc(N=Nc2c(N)nn(-c3ccccc3)c2N)cc1 | 602

SMILES | AC26 [nM]
C/C(=N\NC(=O)c1c([N+](=O)[O-])c(C)nn1C)c1ccc(NC(=O)C2CCCC2)cc1 | 498
COc1ccc2c(c1)[C@H]1[C@H](CO2)[C@H](c2ccccc2)[C@]2(C)C(=O)Nc3ccc(Br)cc3C(=O)N12 | 188
O=C(/C=C/Sc1ccccc1)c1ccccc1 | 2150
COc1ccc(-c2nc3c(C(=O)NCCN(C)C)cccc3c3ccccc23)cc1 | 4160
Cc1ccc(OCCN2C(=O)C(=O)c3cc(C)ccc32)cc1 | 2460
Cc1ccc(Sc2c(CO)c(-c3ccccc3)nn2C)cc1 | 341
COc1ccc(S(=O)(=O)NCc2ccccn2)cc1NC(=O)c1ccccc1 | 234
O=C(N/N=C/c1ccccn1)c1cc(-c2ccncc2)nc2ccccc12 | 499
COc1cc(-c2[nH]ncc2CN2CCSCC2)cc(OC)c1OC | 4790
COc1ccc(NC(=O)C2Cc3c(-c4cccc(NC(C)=O)c4)ccnc3O2)cn1 (centres undefined) | 2590
CSc1ccc(/C=N/NC(=O)c2ccccc2Cl)cc1 | 3680
COc1cccc(-c2cc3nc(-c4ccccc4)cc(=O)n3[nH]2)c1 | 7070
CCNc1ccc(C(=O)OCC)cc1NC(=O)c1cccc(N(C)C)c1 | 3160
COc1cccc(C2=NOC(C(=O)NCc3ccccc3)C2)c1 (centres undefined) | 73.2
Cc1nn(-c2ccccc2)c(Cl)c1/C=C/C(=O)c1ccc(O)cc1 | 5020
O=C(C=Cc1ccccc1F)c1ccccc1 | 3230
O=S(=O)([N-]c1nc2ccccc2nc1-n1cc[n+](Cc2ccccc2)c1)c1ccc(Br)cc1 | 236
CCn1c2ccccc2c2cc(NC(=O)CNCc3ccccc3OC)ccc21 | 1360
COc1cc(NC(=O)CN2c3cccc4cccc(c34)S2(=O)=O)cc(OC)c1OC | 1770
Cc1ccc(S(=O)(=O)Cc2ccc(C(=O)N3CCN(c4cccc(C)c4C)CC3)o2)cc1 | 3450
O=C(c1[nH]c(C(F)(F)F)nc1-c1ccccc1)N1CCN(c2ccccc2)CC1 | 395
Cn1cnc([N+](=O)[O-])c1S(=O)(=O)Oc1ccccc1 | 1420
